Counter-ions that a name gives are not always drawn.
Columns and labels:
[1] = target: T1, PIM1 serine/threonine kinase (Homo sapiens, UniProt P11309); assay: PIM1 serine/threonine kinase inhibitory effect; assay type: biochemical; conditions: PIM1 serine/threonine kinase activity; ATP 40 μM; 30° C., 30 minutes
T1 construct: purchased Carna Bioscience, Inc
How it was run: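 Compounds were tested in duplicate from 0.01 to 10000 nM final against PIM1 kinase (0.15 μg/ml). The reaction ran for 30 minutes at 30° C with 40 μM ATP and 0.5 μM biotin-tagged substrate at pH 7.0. Phosphorylation was read by time-resolved FRET (OD665/OD620) after 1 h; IC50 by non-linear fit.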

[2] = target: PIM1 transgenic cells (Ba/F3) (Homo sapiens, UniProt P11309); assay: Proliferation inhibitory effect on PIM1 transgenic cells; assay type: cell-based, mouse; conditions: proliferation inhibition, 72 hours, Cell Counting Kit-8, read-out: PIM1 IC50
How it was run: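 Mouse Ba/F3 pro-B cells were retrovirally transduced with human PIM1 so that their proliferation depends on PIM1. Cells were treated with compound at 1–10000 nM final for 72 h, then read by CCK-8 (OD450−OD650). Inhibition was set against DMSO (0%) and no-cell blank (100%), and IC50 was obtained by two-parameter logistic regression.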

PIM1 transgenic cells (Ba/F3), sequence (P11309 whole entry, stated change not applied): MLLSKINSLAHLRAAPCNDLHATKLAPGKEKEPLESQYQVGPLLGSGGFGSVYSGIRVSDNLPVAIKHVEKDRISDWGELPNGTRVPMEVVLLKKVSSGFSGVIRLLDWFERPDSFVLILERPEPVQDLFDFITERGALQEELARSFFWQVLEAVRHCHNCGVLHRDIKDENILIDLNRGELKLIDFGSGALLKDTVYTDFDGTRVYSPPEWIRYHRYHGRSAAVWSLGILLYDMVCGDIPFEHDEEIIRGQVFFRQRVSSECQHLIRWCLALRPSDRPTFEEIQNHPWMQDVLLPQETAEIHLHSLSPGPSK
T1 sequence (P11309 whole entry): as the sequence (P11309 whole entry, stated change not applied) above

SMILES	IC50 [1] [µM]	GI50 [2] [µM]
CN[C@H]1C[C@@H]([C@H](C)Nc2cc(-c3n[nH]c(=O)o3)cc(F)c2C(F)(F)F)C1 [Example 203, 5-[3-fluoro-5-({(1S)-1-[(1s,3R)-3-(methylamino)cyclobutyl]ethyl}amino)-4-(trifluoromethyl)phenyl]-1,3,4-oxadiazol-2(3H)-one hydrochloride]	0.0036	0.054
CN[C@H]1CC[C@H]([C@H](C)Nc2cc(-c3n[nH]c(=O)o3)cc(F)c2OC(F)(F)F)CC1 [Example 204, 5-[3-fluoro-5-({(1S)-1-[(1r,4S)-4-(methylamino)cyclohexyl]ethyl}amino)-4-(trifluoromethoxy)phenyl]-1,3,4-oxadiazol-2(3H)-one hydrochloride]	0.0035	0.057
C[C@H](Nc1cc(-c2n[nH]c(=O)o2)cc(F)c1C(F)(F)F)C1(C)CCNCC1 [Example 206, 5-[3-fluoro-5-{[(1S)-1-(4-methylpiperidin-4-yl)ethyl]amino}-4-(trifluoromethyl)phenyl]-1,3,4-oxadiazol-2(3H)-one]	0.0017	0.032
C[C@H](Nc1cc(-c2n[nH]c(=O)o2)cc(F)c1OC(F)(F)F)C1(C)CCNCC1 [Example 207, 5-[3-fluoro-5-{[(1S)-1-(4-methylpiperidin-4-yl)ethyl]amino}-4-(trifluoromethoxy)phenyl]-1,3,4-oxadiazol-2(3H)-one]	0.0026	0.05
CN[C@H]1C[C@@H]([C@H](C)Nc2cc(-c3n[nH]c(=O)o3)cc(F)c2OC(F)(F)F)C1 [Example 208, 5-[3-fluoro-5-({(1S)-1-[(1s,3R)-3-(methylamino)cyclobutyl]ethyl}amino)-4-(trifluoromethoxy)phenyl]-1,3,4-oxadiazol-2(3H)-one]	0.0085	0.13
O=c1[nH]nc(-c2ccc(C(F)(F)F)c(N[C@@H](CF)C3(F)CCNCC3)c2)o1 [Example 209, 5-[3-{[(1S)-2-fluoro-1-(4-fluoropiperidin-4-yl)ethyl]amino}-4-(trifluoromethyl)phenyl]-1,3,4-oxadiazol-2(3H)-one]	0.0057	0.1
C[C@H](Nc1cc(-c2n[nH]c(=O)o2)cc(F)c1C(F)(F)F)[C@@H]1CCNC[C@@H]1C [Example 211, 5-[3-fluoro-5-({(1S)-1-[(3R,4R)-3-methylpiperidin-4-yl]ethyl}amino)-4-(trifluoromethyl)phenyl]-1,3,4-oxadiazol-2(3H)-one]	0.0049	0.11
C[C@H](Nc1cc(-c2n[nH]c(=O)o2)cc(F)c1OC(F)F)C1CCNCC1 [Example 212, 5-[4-(difluoromethoxy)-3-fluoro-5-{[(1S)-1-(piperidin-4-yl)ethyl]amino}phenyl]-1,3,4-oxadiazol-2(3H)-one]	0.0021	0.073
C[C@H](Nc1cc(-c2n[nH]c(=O)o2)cc(F)c1OC(F)F)C1(C)CCNCC1 [Example 213, 5-[4-(difluoromethoxy)-3-fluoro-5-{[(1S)-1-(4-methylpiperidin-4-yl)ethyl]amino}phenyl]-1,3,4-oxadiazol-2(3H)-one]	0.002	0.085
C[C@@H]1C[C@H]([C@H](C)Nc2cc(-c3n[nH]c(=O)o3)cc(F)c2OC(F)F)CCN1 [Example 216, 5-[4-(difluoromethoxy)-3-fluoro-5-({(1S)-1-[(2R,4R)-2-methylpiperidin-4-yl]ethyl}amino)phenyl]-1,3,4-oxadiazol-2(3H)-one]	0.0035	0.045
C[C@@H]1CNCC[C@@H]1[C@H](C)Nc1cc(-c2n[nH]c(=O)o2)ccc1OC(F)(F)F [Example 218, 5-[3-({(1S)-1-[(3S,4S)-3-methylpiperidin-4-yl]ethyl}amino)-4-(trifluoromethoxy)phenyl]-1,3,4-oxadiazol-2(3H)-one]	0.0029	0.027
C[C@@H]1CNCC[C@@H]1[C@H](C)Nc1cc(-c2n[nH]c(=O)o2)ccc1OC(F)F [Example 220, 5-[4-(difluoromethoxy)-3-({(1S)-1-[(3S,4S)-3-methylpiperidin-4-yl]ethyl}amino)phenyl]-1,3,4-oxadiazol-2(3H)-one]	0.0061	0.11
C[C@@H]1CNCC[C@@H]1[C@H](C)Nc1cc(-c2n[nH]c(=O)o2)ccc1Cl [Example 221, 5-[4-chloro-3-({(1S)-1-[(3S,4S)-3-methylpiperidin-4-yl]ethyl}amino)phenyl]-1,3,4-oxadiazol-2(3H)-one]	0.0072	0.046
C[C@@H]1CNCC[C@@H]1[C@H](C)Nc1cc(-c2n[nH]c(=O)o2)cc(F)c1Cl [Example 222, 5-[4-chloro-3-fluoro-5-({(1S)-1-[(3S,4S)-3-methylpiperidin-4-yl]ethyl}amino)phenyl]-1,3,4-oxadiazol-2(3H)-one]	0.0024	0.019
CC[C@H]1CNCC[C@H]1[C@H](C)Nc1cc(-c2n[nH]c(=O)o2)cc(F)c1C(F)(F)F [Example 226, 5-[3-({(1S)-1-[(3R,4R)-3-ethylpiperidin-4-yl]ethyl}amino)-5-fluoro-4-(trifluoromethyl)phenyl]-1,3,4-oxadiazol-2(3H)-one]	0.0054	0.083
C[C@H](Nc1cc(-c2n[nH]c(=O)o2)cc(F)c1C1CC1)[C@H]1CC[C@H](N)CC1 [Example 230, 5-[3-({(1S)-1-[(1r,4S)-4-aminocyclohexyl]ethyl}amino)-4-cyclopropyl-5-fluorophenyl]-1,3,4-oxadiazol-2(3H)-one]	0.0033	0.022
CCc1c(F)cc(-c2n[nH]c(=O)o2)cc1N[C@@H](C)[C@H]1CC[C@H](N)CC1 [Example 231, 5-[3-({(1S)-1-[(1r,4S)-4-aminocyclohexyl]ethyl}amino)-4-ethyl-5-fluorophenyl]-1,3,4-oxadiazol-2(3H)-one hydrochloride]	0.0034	0.037
C=C(C)c1c(F)cc(-c2n[nH]c(=O)o2)cc1N[C@@H](C)[C@H]1CC[C@H](N)CC1 [Example 232, 5-[3-({(1S)-1-[(1r,4S)-4-aminocyclohexyl]ethyl}amino)-5-fluoro-4-(prop-1-en-2-yl)phenyl]-1,3,4-oxadiazol-2(3H)-one hydrochloride]	0.002	0.028
CC(C)c1c(F)cc(-c2n[nH]c(=O)o2)cc1N[C@@H](C)[C@H]1CC[C@H](N)CC1 [Example 233, 5-[3-({(1S)-1-[(1r,4S)-4-aminocyclohexyl]ethyl}amino)-5-fluoro-4-(propan-2-yl)phenyl]-1,3,4-oxadiazol-2(3H)-one hydrochloride]	0.0055	0.044
N[C@H]1CC[C@H](CSc2cc(-c3n[nH]c(=O)o3)ccc2C(F)(F)F)CC1 [Example 234, 5-[3-({[(1r,4r)-4-aminocyclohexyl]methyl}sulfanyl)-4-(trifluoromethyl)phenyl]-1,3,4-oxadiazol-2(3H)-one]	0.0026	0.12
O=c1[nH]nc(-c2ccc(Br)c(OCC3CCNCC3)c2)o1 [Example 235, 5-{4-bromo-3-[(piperidin-4-yl)methoxy]phenyl}-1,3,4-oxadiazol-2(3H)-one]	0.0077	0.65
CC(Oc1cc(-c2n[nH]c(=O)o2)ccc1Br)C1CCNCC1 (stereo not drawn) [Example 236]	0.0087	0.18
CC(Oc1cc(-c2n[nH]c(=O)o2)ccc1Br)[C@H]1CC[C@H](N)CC1 (stereo partly drawn) [Example 237, 5-(3-{1-[(1r,4r)-4-aminocyclohexyl]ethoxy}-4-bromophenyl)-1,3,4-oxadiazol-2(3H)-one]	0.0053	0.09
N[C@H]1CC[C@H](COc2cc(-c3n[nH]c(=O)o3)ccc2Br)CC1 [Example 238, 5-(3-{[(1r,4r)-4-aminocyclohexyl]methoxy}-4-bromophenyl)-1,3,4-oxadiazol-2(3H)-one]	0.0025	0.087
CC(Oc1cc(-c2n[nH]c(=O)o2)ccc1C(F)(F)F)C1CCNCC1 (stereo not drawn) [Example 239, 5-{3-[1-(piperidin-4-yl)ethoxy]-4-(trifluoromethyl)phenyl}-1,3,4-oxadiazol-2(3H)-one]	0.01	0.25
N[C@H]1CC[C@H](COc2cc(-c3n[nH]c(=O)o3)ccc2C(F)(F)F)CC1 [Example 240, 5-[3-{[(1r,4r)-4-aminocyclohexyl]methoxy}-4-(trifluoromethyl)phenyl]-1,3,4-oxadiazol-2(3H)-one]	0.0019	0.087
N[C@H]1CC[C@H](COc2cc(-c3n[nH]c(=O)o3)ccc2Cl)CC1 [Example 241, 5-(3-{[(1r,4r)-4-aminocyclohexyl]methoxy}-4-chlorophenyl)-1,3,4-oxadiazol-2(3H)-one]	0.0037	0.079
O=c1[nH]nc(-c2ccc(Cl)c(OC[C@H]3C[C@@H](N4CCNCC4)C3)c2)o1 [Example 242, 5-(4-chloro-3-{[(1s,3s)-3-(piperazin-1-yl)cyclobutyl]methoxy}phenyl)-1,3,4-oxadiazol-2(3H)-one]	0.01	2.6
N[C@H]1CC[C@@H](COc2cc(-c3n[nH]c(=O)o3)ccc2Cl)CC1 [Example 243, 5-(3-{[(1s,4s)-4-aminocyclohexyl]methoxy}-4-chlorophenyl)-1,3,4-oxadiazol-2(3H)-one]	0.0041	0.15
N[C@H]1CC[C@H](CN2CCCc3ccc(-c4n[nH]c(=O)o4)cc32)CC1 [Example 244, 5-(1-{[(1r,4r)-4-aminocyclohexyl]methyl}-1,2,3,4-tetrahydroquinolin-7-yl)-1,3,4-oxadiazol-2(3H)-one]	0.011	0.14

Source: patent US20220024921A1, “1,3,4-OXADIAZOLONE COMPOUND AND PHARMACEUTICAL” (NIPPON SHINYAKU CO., LTD., priority 2018, published 2022)
